Experimental data reported in patent US20250360183A1, “USE OF GMI FROM GANODERMA LUCIDUM SPORES IN THE PREPARATION OF PHARMACEUTICALS AND FOOD PRODUCTS” (Titan Biological & Agricultural Technology Co., Limited, priority 2024, published 2025).

Columns and labels:
[1] = tested on: fibronectin, COL1A1, and α-SMA; assay: Western blot of fibrosis markers in TGF-β1-induced fibrotic LL29 cells; format: cell-based, human; conditions: LL29 cells stimulated with TGF-β1 5 ng/ml, normalized to α-tubulin
Method: In the in vitro experiments, cells were pre-treated with test compounds and subsequently stimulated with recombinant TGF-β1 to induce fibrotic processes. TGF-β1 plays a critical role in epithelial-mesenchymal transition (EMT), a key driver in the differentiation of fibroblasts into myofibroblasts. LL29 cells, derived from IPF patient lung fibroblasts, were obtained from ATCC®. Upon reaching 70% confluence, cells were pre-treated with selected concentrations of GMI in low-serum media for 2 hours, followed by exposure to 5 ng/ml of recombinant human TGF-β1 (R&D Systems, MN, USA) for 48 hours.
Cell lysates were prepared in RIPA buffer. […] Protein expression was quantified using Fiji software.
The present invention evaluated the expression levels of fibronectin, COL1A1, and alpha-smooth muscle actin (α-SMA), as these proteins are key markers associated with myofibroblasts and extracellular matrix (ECM) remodeling.
FIG. 3 (A) presents the results of Western blot analysis showing the expression of fibronectin, COL1A1, α-SMA, and the internal loading control α-tubulin. FIGS. 3 (B), (C) and (D) show the quantification of protein expression based on band intensity, represented as fold changes in the ratios of fibronectin/α-tubulin, COL1A1/α-tubulin, and α-SMA/α-tubulin, normalized to the untreated control (NT) group. […]

[2] = tested on: BLM-induced pulmonary fibrosis; assay: BLM-induced pulmonary fibrosis mouse model; format: in vivo, C57BL/6J mice; conditions: BLM 2.5 U/kg mice
Method: Four groups were intratracheally administered bleomycin (BLM; 2.5 U/kg) to induce pulmonary fibrosis, while one group served as a normal control. The treatment groups included: BLM-only, BLM+GMI (1 mg/kg), BLM+GMI (2 mg/kg), and BLM+PFD (200 mg/kg). All surviving animals were sacrificed on day 22.

For `Cc1ccc(=O)n(-c2ccccc2)c1` [PFD, pirfenidone], the “expression levels of fibronectin, COL1A1 and α-SMA” value [1] was “failed to suppress the TGF-β1-induced upregulation”, the survival rate ([2]; PFD 200 mg/kg) was 50% and the “lung appearance (gross examination, color)” value ([2]; compared to normal group) was “color and appearance comparable to the normal group”.
